{"source": "paper doi:10.1101/2024.05.17.594634", "about": "“Protein Structure Inspired Drug Discovery” (bioRxiv, 2024)", "assay_type_in_all_cases": "cell-based, human", "key": {"[1]": {"test_system": "MCF-7 breast cancer cells", "experiment": "Eight-day colony formation assay, MCF-7", "experimental": "(§1) We sought to identify compounds that would inhibit the growth of cancer cells, but that also did so selectively. Inhibition of cancer cell growth is a highly sought after attribute of anticancer agents. This was assessed by measuring the ability of a compound to inhibit cell growth in eight-day colony formation assays, examining concentrations ranging from 0.017 to 40 μM. Breast, colon, lung and prostate cancer are four of the most common causes of cancer in the United States, are major causes of cancer cell death, and were examined.[64] Two cell lines for each cancer type were assessed: A549 (adenocarcinoma) and H226 (squamous carcinoma) for lung, MCF-7 (estrogen receptor [ER] positive) and MDA-MB-231 (ER negative) for breast, LNCaP (androgen receptor [AR] positive) and PC3-M (AR negative) for prostate, and HCT116 (wild type p53, mutated KRAS) and HT29 (p53 mutant) for colon.[65]\n(§2) In considering effect on cancer cells, for each compound and each cell line tested we calculated the efficacy ratio, i.e., efficacy ratio = (percent of remaining cancer cell colonies)/(percent of remaining bone marrow colonies), at 8 days after treatment with 40 μM compound (S4 Fig). We considered those with an efficacy ratio below 0.5 as active and at least partially selective. The stringency of this is highlighted by considering the effect of 5FU on colon cancer, where it is frequently used clinically in proven curative settings, as well as proven life prolonging settings.[70, 71] […] Even at 5.7 μM, where 5FU is toxic to bone marrow, with hematopoietic colony formation at 38% of control, the efficacy ratio for HT29 cells has only dropped to 0.52. […] It can be seen that compounds segregate to protein sites. Specifically, of 10 compounds meeting this activity criteria (i.e., efficacy ratio <0.5), 3 were directed at the Dxr2 site, 3 at FolC2, 2 at FolC1, 1 at Dxr1 and 1 at TYLT.\n(§3) Eight-day colony formation assays of cancer cells were performed as described by us.[87] Briefly, 0.5–1.0 × 10^3 cells were seeded into a 12 well plate, after 24 hours compound added and eight days later colonies (of 3 or more cells) were scored after trypan blue staining. Conditions were in replicates of N = 2. All compounds were stored under desiccated conditions in a sealed container at minus 20°C upon arrival. One day prior to use, they were placed into DMSO, stored at […] as stock solutions, thawed just prior to use, and not reused."}, "[2]": {"test_system": "SK-MEL-5 cells", "experiment": "Western blot for cleaved caspase 3, SK-MEL-5", "settings": "3 days, up to 20 μM", "experimental": "(§4) Fig 8. Dxr2-017 inhibits melanoma cell growth through induction of anoikis. (A) Inhibition of melanoma cell growth. Cells were treated with different concentrations of Dxr2-017 and formation of colonies at eight days depicted. Data are expressed as percent of untreated control and are the mean ± SEM (N=3 replicates) of a single experiment. (B) No effect on cycle progression. M14 and SK-MEL-5 cells were treated for 8 days with 20 and 50 nM Dxr2-017, respectively, and phase of cell cycle determined by flow cytometry. Data are the mean ± SEM (N=3). *denotes P-value ≤0.05. (C) Transition to floating cells. Cells were treated for three days with different Dxr2-017 concentrations. Depicted are representative light photomicrographs at 20X; scale bar is150 μm. Blue and green arrows denote adherent and floating cells, respectively. (D) Cleaved caspase 3 is induced in floating cells. Cells were treated for 3 days, cell lysate from only adherent cells, or from adherent and floating cells combined, was probed by Western blot for cleaved caspase 3. All experiments were repeated at separate times, yielding similar results.\n(§5) We then assessed whether Dxr2-017 was inducing apoptosis. […] These findings raised the possibility that Dxr2-017 was inducing anoikis, a process in which programmed cell death occurs upon cell detachment.[72, 73] […]"}, "[3]": {"test_system": "melanoma cell lines", "experiment": "NCI-60 cell line screen, melanoma cell lines", "settings": "10 μM X 48 hours", "experimental": "(§6) Above findings support the importance of Dxr2 and FolC2 sites, and of Dxr2-017 and FolC2-001 compounds, respectively. The predicted poses of Dxr2-017 bound to the Dxr2 site and FolC2-001 bound to the FolC2 site are shown (Fig 7). The NCI-60 cell line screen evaluates compound growth inhibition and cell toxicity in a highly standardized manner across 60 different cell lines. Dxr2-017 and FolC2-001 were evaluated in this assay (S5 Fig). NCI-60 screens evaluate compounds at 10 μM X 48 hours. […] Of high interest, in the NCI-60 screen Dxr2-017 had relatively high activity against melanoma cell lines, inducing cell death in 5 cell lines ranging from 25–65%, and inhibiting growth in 4 cell lines ranging from 76–96%. Its impact on cell death represents the most striking relative difference in response across cell lines."}, "[4]": {"test_system": "M14 cells", "experiment": "Western blot for cleaved caspase 3, M14", "settings": "3 days, up to 10 μM", "experimental": "as §4, §5"}, "[5]": {"test_system": "HT29, MDA-MB-231 and H226", "experiment": "NCI-60 cell line screen, other cell lines", "settings": "10 μM X 48 hours", "experimental": "as §6"}, "[6]": {"test_system": "H226 lung cancer cells", "experiment": "Eight-day colony formation assay, H226", "experimental": "as §1, §2, §3"}, "[7]": {"test_system": "PC3-M prostate cancer cells", "experiment": "Eight-day colony formation assay, PC3-M", "experimental": "as §1, §2, §3"}}, "data": [{"smiles": "c1ccc2sc(-c3ccc(CNc4ccc5nnnn5n4)o3)nc2c1", "note": "[Dxr2-017]", "values": [{"measurement": "efficacy ratio (cancer cell colonies to bone marrow colonies at 8 days)", "setting": "[1]; 5.7 μM", "result": 0.39}, {"measurement": "efficacy ratio (cancer cell colonies to bone marrow colonies at 8 days)", "setting": "[1]; 40 μM", "result": 0.02}, {"measurement": "cleaved caspase 3, adherent cells only", "setting": "[2]", "result": "did not detect any induction of cleaved caspase 3"}, {"measurement": "cleaved caspase 3, floating and adherent cells combined", "setting": "[2]", "result": "clear formation"}, {"measurement": "cell death", "setting": "[3]; range over 5 melanoma cell lines", "result": "25–65%"}, {"measurement": "inhibition at 10 µM", "setting": "[3]; Homo sapiens, range over 4 melanoma cell lines, read-out: growth inhibition", "result": "76 to 96", "unit": "%"}, {"measurement": "cleaved caspase 3, adherent cells only", "setting": "[4]", "result": "did not detect any induction of cleaved caspase 3"}, {"measurement": "cleaved caspase 3, floating and adherent cells combined", "setting": "[4]", "result": "clear formation"}, {"measurement": "activity in NCI-60 screen", "setting": "[5]", "result": "activity against HT29, MDA-MB-231 and H226"}, {"measurement": "efficacy ratio (cancer cell colonies to bone marrow colonies at 8 days)", "setting": "[6]; 5.7 μM", "result": 0.12}, {"measurement": "efficacy ratio (cancer cell colonies to bone marrow colonies at 8 days)", "setting": "[6]; 40 μM", "result": 0.02}, {"measurement": "efficacy ratio (cancer cell colonies to bone marrow colonies at 8 days)", "setting": "[7]; 5.7 μM", "result": 0.41}, {"measurement": "efficacy ratio (cancer cell colonies to bone marrow colonies at 8 days)", "setting": "[7]; 40 μM", "result": 0.00}]}]}
